PMC8198871, “Suppression of Breast Cancer by Small Molecules That Block the Prolactin Receptor” (Cancers, 2021)

Legend:
[1] = target: T1, prolactin receptor (PRLR) (Homo sapiens, UniProt P16471); experiment: microscale thermophoresis; confirmed by isothermal titration calorimetry; assay type: binding
T1 construct: extracellular domain (ECD), purified recombinant
T1 sequence (P16471 25-234 limits assumed): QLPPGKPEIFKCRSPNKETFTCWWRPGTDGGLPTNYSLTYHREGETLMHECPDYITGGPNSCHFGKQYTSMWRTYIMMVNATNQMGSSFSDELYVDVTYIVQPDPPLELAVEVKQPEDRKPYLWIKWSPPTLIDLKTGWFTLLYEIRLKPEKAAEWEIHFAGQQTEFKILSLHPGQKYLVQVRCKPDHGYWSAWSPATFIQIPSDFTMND

[2] = target: T2, serotonin receptor 2C (HTR2C) (Homo sapiens, UniProt P28335); experiment: DiscoverX GPCR selectivity panel, multiple doses; assay type: cell-based
T2 sequence (P28335 33-458): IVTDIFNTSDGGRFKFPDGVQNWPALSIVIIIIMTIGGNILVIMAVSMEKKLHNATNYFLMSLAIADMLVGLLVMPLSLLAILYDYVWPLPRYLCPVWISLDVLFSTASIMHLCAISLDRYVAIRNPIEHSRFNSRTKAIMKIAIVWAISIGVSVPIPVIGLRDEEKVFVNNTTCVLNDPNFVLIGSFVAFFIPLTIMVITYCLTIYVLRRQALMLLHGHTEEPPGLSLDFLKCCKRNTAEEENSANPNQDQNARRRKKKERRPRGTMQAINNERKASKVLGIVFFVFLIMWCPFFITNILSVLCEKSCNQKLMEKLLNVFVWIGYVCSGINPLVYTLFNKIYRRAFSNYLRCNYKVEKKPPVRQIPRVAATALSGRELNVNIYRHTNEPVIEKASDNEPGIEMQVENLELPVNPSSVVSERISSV

[3] = target: serotonin receptor 2A (HTR2A) (Homo sapiens, UniProt P28223); experiment: DiscoverX GPCR selectivity panel, multiple doses; assay type: cell-based
Sequence of serotonin receptor 2A (HTR2A) (P28223 whole entry): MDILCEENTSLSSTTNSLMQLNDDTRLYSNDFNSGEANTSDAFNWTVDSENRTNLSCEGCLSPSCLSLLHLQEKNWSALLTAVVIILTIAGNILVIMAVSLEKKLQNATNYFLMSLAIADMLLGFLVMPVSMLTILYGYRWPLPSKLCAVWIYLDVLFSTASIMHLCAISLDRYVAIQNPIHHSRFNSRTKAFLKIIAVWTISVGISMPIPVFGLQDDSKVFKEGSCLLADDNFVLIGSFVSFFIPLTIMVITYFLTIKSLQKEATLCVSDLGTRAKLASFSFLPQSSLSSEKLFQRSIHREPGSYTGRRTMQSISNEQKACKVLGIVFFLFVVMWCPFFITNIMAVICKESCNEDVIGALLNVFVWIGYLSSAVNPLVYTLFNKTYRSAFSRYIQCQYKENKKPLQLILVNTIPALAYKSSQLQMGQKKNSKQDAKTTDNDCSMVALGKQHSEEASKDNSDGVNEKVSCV

[4] = target: T3, hypocretin receptor 1 (HCRTR1) (Homo sapiens, UniProt O43613); experiment: DiscoverX GPCR selectivity panel, multiple doses; assay type: cell-based
T3 sequence (O43613 1-425): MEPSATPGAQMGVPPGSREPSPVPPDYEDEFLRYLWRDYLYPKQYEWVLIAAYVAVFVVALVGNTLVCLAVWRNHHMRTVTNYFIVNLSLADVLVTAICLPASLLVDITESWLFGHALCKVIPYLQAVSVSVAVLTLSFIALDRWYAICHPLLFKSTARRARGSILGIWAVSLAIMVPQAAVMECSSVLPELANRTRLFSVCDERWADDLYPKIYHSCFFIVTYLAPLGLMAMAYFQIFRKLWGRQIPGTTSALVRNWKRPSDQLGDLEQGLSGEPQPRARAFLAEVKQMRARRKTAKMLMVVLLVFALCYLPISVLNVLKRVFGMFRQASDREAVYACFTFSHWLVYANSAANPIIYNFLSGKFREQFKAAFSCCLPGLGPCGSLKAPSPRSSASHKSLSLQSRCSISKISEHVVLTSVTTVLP

SMILES: CCN(CC)c1ccc(/C=N/NC(=O)c2c(Cl)cnn2C)c(O)c1 [SMI-6]
- Kd [1]: 3.31 µM
- IC50 [2]: 3.48 µM
- IC50 [3]: 2.39 µM
- IC50 [4]: 6.71 µM
